Experiments:
Format in all cases: physicochemical
[1] = Conductivity of diluted samples (EPA method 120.1); conditions: samples diluted with de-ionized water; Example materials at 1% by volume in water
Description: In order to test for conductivity the samples are each diluted with de-ionized water for analysis. The testing is completed using a Mettler Toledo Seven Excellence Meter with a conductivity probe following EPA method 120.1.

[2] = Acidity titration for hydrogen ion content (ASTM D1067 Test Method A); conditions: titrated to pH 8.6; Example materials at 1% by volume in water
Description: The testing was completed using a Metrohm 826 Titrando equipped with a pH probe.

[3] = Freeze point by DSC (USP <891>); conditions: Example materials at 1% by volume in water
Experimental: In order to evaluate freezing point, the samples are analyzed using a TA Instruments Q100 DSC equipped with an RCS-90 cooling system following USP <891>.

[4] = Excess hydrogen ion concentration and pH after admixing with water; conditions: 5 ml material in 5 ml deionized and distilled water, standard temperature and pressure
Experimental: The excess hydrogen ion concentration is measured as greater than 15% by volume and the pH of the material is determined to be 1.

Substance: hydrogen (1+), triaqua-μ3-oxotri sulfate (1:1) [Example I]
- Conductivity [1]: 551 mS/cm
- Acidity @ pH 8.6 [2]: 1307.28 meq/L
- Melting Temperature (freeze point) [3]: −9.07 °C
- pH [4]: 1
